Experimental findings from patent US11993599B2, “Therapeutic compounds” (Genentech, Inc., priority 2021, dated 2024) are described below.

One test addresses T1, BRG1 (Homo sapiens, UniProt P51532).
T1 construct: either BRM primary antibody (Cell signaling Cat #11966) or BRG primary antibody (Abcam, ab 110641); endogenous in cells; host or cells: SW1573
Put plainly: Immunofluorescence assay for BRG1 degradation in SW1573 cells. It is filed as cell-based. The note with it: 20 hours incubation; for DC50: immunofluorescence mean nuclear signal, read-out: BRG1 IF Degradation IC50; for Dmax: SW1573, 20 h, normalized to a known degrader control, read-out: BRG1 IF Degradation Sinf (%). The method, boiled down:
(§1)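 SW1573 cells were treated with compound for 20 h, fixed, permeabilized and immunostained for BRM or BRG1 with a Hoechst nuclear counterstain. Mean nuclear signal intensity per cell was quantified by high-content imaging, normalized to a known degrader control, and dose-response curves were fit with a floating maximum to derive Dmax.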

In the next test the target is BRM (Homo sapiens, UniProt P51531). The experiment in a line: Immunofluorescence assay for BRM degradation in SW1573 cells. The conditions noted are these: 20 hours incubation; for DC50: immunofluorescence mean nuclear signal, read-out: BRM IF Degradation IC50; for BRM IF Degradation Sinf (%): normalized to a known degrader control. It is filed as cell-based. More on the design: treated overnight at 4° C. with either BRM primary antibody (Cell signaling Cat #11966) or BRG primary antibody; endogenous in cells; host or cells: SW1573. The method, boiled down:
as §1

T1 sequence (P51532 whole entry): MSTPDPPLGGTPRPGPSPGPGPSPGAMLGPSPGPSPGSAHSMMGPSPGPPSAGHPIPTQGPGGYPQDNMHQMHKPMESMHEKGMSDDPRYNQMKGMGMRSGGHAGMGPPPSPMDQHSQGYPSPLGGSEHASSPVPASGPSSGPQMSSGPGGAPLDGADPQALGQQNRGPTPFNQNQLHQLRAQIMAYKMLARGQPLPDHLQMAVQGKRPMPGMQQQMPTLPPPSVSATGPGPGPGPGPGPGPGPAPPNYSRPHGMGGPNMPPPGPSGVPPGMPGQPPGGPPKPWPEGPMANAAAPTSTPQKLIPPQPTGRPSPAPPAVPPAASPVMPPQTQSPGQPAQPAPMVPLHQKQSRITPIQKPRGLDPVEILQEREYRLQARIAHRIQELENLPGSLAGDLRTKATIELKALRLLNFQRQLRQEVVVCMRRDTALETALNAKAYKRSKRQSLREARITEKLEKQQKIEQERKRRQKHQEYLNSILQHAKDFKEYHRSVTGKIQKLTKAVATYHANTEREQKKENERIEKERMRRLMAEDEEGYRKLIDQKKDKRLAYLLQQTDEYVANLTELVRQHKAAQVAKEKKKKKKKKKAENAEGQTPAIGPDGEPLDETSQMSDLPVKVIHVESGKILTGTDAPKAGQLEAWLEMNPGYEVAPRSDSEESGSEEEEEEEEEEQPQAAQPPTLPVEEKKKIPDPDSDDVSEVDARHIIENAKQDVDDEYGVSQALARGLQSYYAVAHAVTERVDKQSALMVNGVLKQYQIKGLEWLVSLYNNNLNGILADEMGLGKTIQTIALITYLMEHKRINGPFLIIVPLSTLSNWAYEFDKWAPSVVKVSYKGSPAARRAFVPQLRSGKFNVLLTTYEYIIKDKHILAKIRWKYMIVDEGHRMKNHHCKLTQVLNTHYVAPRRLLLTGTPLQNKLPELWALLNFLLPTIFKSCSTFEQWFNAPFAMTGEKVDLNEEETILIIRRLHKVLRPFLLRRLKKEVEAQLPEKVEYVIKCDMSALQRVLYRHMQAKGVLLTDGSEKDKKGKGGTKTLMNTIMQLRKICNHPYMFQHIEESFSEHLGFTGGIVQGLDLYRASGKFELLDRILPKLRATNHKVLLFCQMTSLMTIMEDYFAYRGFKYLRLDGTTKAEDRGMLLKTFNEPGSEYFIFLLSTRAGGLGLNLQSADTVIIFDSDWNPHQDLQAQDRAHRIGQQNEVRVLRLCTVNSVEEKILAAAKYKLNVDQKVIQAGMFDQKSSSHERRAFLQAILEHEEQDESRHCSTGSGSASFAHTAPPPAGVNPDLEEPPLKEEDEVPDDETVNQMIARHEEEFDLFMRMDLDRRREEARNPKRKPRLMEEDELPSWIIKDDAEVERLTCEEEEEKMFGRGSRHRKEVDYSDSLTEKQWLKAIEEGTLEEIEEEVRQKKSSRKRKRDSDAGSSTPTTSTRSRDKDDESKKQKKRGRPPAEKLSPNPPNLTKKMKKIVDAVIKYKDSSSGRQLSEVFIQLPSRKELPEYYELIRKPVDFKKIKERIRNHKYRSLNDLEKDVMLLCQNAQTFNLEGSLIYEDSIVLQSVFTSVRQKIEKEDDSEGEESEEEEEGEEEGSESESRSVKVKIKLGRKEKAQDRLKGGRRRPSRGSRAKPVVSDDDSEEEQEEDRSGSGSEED
Sequence of BRM (P51531 whole entry): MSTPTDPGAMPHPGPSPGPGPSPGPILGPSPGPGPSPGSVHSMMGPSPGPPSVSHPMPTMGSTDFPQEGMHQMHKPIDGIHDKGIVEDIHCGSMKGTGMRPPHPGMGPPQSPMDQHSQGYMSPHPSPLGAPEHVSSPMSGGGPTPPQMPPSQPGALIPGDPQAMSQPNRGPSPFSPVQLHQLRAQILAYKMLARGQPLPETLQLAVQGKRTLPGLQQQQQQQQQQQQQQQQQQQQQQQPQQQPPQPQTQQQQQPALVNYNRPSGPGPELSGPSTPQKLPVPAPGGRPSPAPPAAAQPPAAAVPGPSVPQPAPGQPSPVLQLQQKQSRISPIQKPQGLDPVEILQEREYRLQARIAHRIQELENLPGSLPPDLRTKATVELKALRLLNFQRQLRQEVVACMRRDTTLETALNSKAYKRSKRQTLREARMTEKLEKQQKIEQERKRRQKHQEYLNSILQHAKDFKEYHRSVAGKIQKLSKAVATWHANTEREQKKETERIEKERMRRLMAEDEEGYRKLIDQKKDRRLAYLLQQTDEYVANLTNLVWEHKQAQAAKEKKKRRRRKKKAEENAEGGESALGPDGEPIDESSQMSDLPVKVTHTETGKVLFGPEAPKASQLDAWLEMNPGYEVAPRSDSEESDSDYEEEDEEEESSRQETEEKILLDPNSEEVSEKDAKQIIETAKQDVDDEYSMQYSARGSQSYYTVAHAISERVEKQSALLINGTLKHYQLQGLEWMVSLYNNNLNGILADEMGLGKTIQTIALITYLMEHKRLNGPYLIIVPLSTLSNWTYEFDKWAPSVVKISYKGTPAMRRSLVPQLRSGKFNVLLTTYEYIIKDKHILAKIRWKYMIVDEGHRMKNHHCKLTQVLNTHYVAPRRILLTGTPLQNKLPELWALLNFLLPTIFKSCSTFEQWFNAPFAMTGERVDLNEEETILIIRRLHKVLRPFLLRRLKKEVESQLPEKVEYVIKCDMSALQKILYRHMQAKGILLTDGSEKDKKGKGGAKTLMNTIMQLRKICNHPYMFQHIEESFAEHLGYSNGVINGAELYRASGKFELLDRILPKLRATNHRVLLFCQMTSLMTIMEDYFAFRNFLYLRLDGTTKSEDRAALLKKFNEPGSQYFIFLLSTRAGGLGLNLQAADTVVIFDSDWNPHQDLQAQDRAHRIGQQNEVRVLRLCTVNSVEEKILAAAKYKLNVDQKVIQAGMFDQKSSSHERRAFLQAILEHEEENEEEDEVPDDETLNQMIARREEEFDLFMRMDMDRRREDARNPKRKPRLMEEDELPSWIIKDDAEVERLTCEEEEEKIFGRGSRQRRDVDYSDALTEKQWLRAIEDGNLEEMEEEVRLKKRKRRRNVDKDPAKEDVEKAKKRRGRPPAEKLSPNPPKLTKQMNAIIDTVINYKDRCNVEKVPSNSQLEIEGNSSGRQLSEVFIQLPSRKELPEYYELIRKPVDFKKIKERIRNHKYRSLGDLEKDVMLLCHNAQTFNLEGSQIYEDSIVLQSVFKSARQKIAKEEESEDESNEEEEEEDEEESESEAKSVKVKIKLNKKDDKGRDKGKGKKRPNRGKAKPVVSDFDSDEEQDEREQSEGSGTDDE

Take `COC(=O)C1CCS(=O)(=O)C12CN(CC#Cc1cc(N3C4CCC3CN(c3cc(-c5ccccc5O)nnc3N)C4)ccn1)C2` (centres unmarked) [Compound 183, methyl 2-[3-[4-[3-[3-amino-6-(2-hydroxyphenyl)pyridazin-4-yl]-3,8-diazabicyclo[3.2.1]octan-8-yl]-2-pyridyl]prop-2-ynyl]-5,5-dioxo-51ambda6-thia-2-azaspiro[3.4]octane-8-carboxylate]: the DC50 at BRG1 is over 100 nM. On BRM, the DC50 is over 100 nM and the “BRM IF Degradation Sinf (%)” value was “E (E indicates −30%-−70%)”.
Turning to `CC1CCN1CC#Cc1cc(N2C3CCC2CN(c2cc(-c4ccccc4O)nnc2N)C3)ccn1` (centres unmarked) [Compound 184, 2-[6-amino-5-[8-[2-[3-(2-methylazetidin-1-yl)prop-1-ynyl]-4-pyridyl]-3,8-diazabicyclo[3.2.1]octan-3-yl]pyridazin-3-yl]phenol], at BRG1, the DC50 is under 10 nM and the Dmax was in the range of 30 to 70%. On BRM, the DC50 is under 10 nM and the “BRM IF Degradation Sinf (%)” value was “E (E indicates −30%-−70%)”.
`Nc1nnc(-c2ccccc2O)cc1N1CC2CCC(C1)N2c1ccnc(C#CCN2CC3(CC(O)C3)C2)c1` [Compound 185, 2-[3-[4-[3-[3-amino-6-(2-hydroxyphenyl)pyridazin-4-yl]-3,8-diazabicyclo[3.2.1]octan-8-yl]-2-pyridyl]prop-2-ynyl]-2-azaspiro[3.3]heptan-6-ol]: on BRG1, the DC50 lay in the range of 10 to 100 nM and the Dmax lay in the range of 30 to 70%. Also, at BRM, the DC50 is over 100 nM and the “BRM IF Degradation Sinf (%)” value was “F (F indicates −71%-−120%)”.
In the case of `COC[C@@H]1CCN1CC#Cc1cc(N2C3CCC2CN(c2cc(-c4ccccc4O)nnc2N)C3)ccn1` [Compound 186, 2-[6-amino-5-[8-[2-[3-[(2S)-2-(methoxymethyl)azetidin-1-yl]prop-1-ynyl]-4-pyridyl]-3,8-diazabicyclo[3.2.1]octan-3-yl]pyridazin-3-yl]phenol], on BRG1, the DC50 was in the range of 10 to 100 nM and the Dmax was in the range of 30 to 70%. Moreover, on BRM, the DC50 is under 10 nM and the “BRM IF Degradation Sinf (%)” value is “E (E indicates −30%-−70%)”.
In the same order, the values of `CC1(C)CCN1CC#Cc1cc(N2C3CCC2CN(c2cc(-c4ccccc4O)nnc2N)C3)ccn1` [Compound 187, 2-[6-amino-5-[8-[2-[3-(2,2-dimethylazetidin-1-yl)prop-1-ynyl]-4-pyridyl]-3,8-diazabicyclo[3.2.1]octan-3-yl]pyridazin-3-yl]phenol] are under 10 nM, 30 to 70%, under 10 nM and “E (E indicates −30%-−70%)”.
Take `CN1CCOC2(C1)CN(CC#Cc1cc(N3C4CCC3CN(c3cc(-c5ccccc5O)nnc3N)C4)ccn1)C2` [Compound 188, 2-[6-amino-5-[8-[2-[3-(8-methyl-5-oxa-2,8-diazaspiro[3.5]nonan-2-yl)prop-1-ynyl]-4-pyridyl]-3,8-diazabicyclo[3.2.1]octan-3-yl]pyridazin-3-yl]phenol]: the DC50 at BRG1 was over 100 nM. For the same compound, at BRM, the DC50 is over 100 nM and the “BRM IF Degradation Sinf (%)” value is “E (E indicates −30%-−70%)”.
As to `Nc1nnc(-c2ccccc2O)cc1N1CC2CCC(C1)N2c1ccnc(C#CCN2CCCC(F)(F)CC2)c1` [Compound 189, 2-[6-amino-5-[8-[2-[3-(4,4-difluoroazepan-1-yl)prop-1-ynyl]-4-pyridyl]-3,8-diazabicyclo[3.2.1]octan-3-yl]pyridazin-3-yl]phenol], on BRG1, the DC50 was under 10 nM and the Dmax lay within 30 to 70%. For the same compound, on BRM, the DC50 was under 10 nM and the “BRM IF Degradation Sinf (%)” value was “F (F indicates −71%-−120%)”.
As for `CC1CCN(CC#Cc2cc(N3C4CCC3CN(c3cc(-c5ccccc5O)nnc3N)C4)ccn2)CCC1O` (centres unmarked) [Compound 190, 1-[3-[4-[3-[3-amino-6-(2-hydroxyphenyl)pyridazin-4-yl]-3,8-diazabicyclo[3.2.1]octan-8-yl]-2-pyridyl]prop-2-ynyl]-5-methyl-azepan-4-ol], at BRG1, the DC50 was under 10 nM and the Dmax fell in the range of 30 to 70%. Besides, at BRM, the DC50 is under 10 nM and the “BRM IF Degradation Sinf (%)” value is “F (F indicates −71%-−120%)”.
Turning to `Nc1nnc(-c2ccccc2O)cc1N1CC2CCC(C1)N2c1ccnc(C#CCN2CCCC(O)CC2)c1` (centres unmarked) [Compound 191, 1-[3-[4-[3-[3-amino-6-(2-hydroxyphenyl)pyridazin-4-yl]-3,8-diazabicyclo[3.2.1]octan-8-yl]-2-pyridyl]prop-2-ynyl]azepan-4-ol], on BRG1, the DC50 was under 10 nM and the Dmax was 71 to 120%. Also, at BRM, the DC50 is under 10 nM and the “BRM IF Degradation Sinf (%)” value was “F (F indicates −71%-−120%)”.
Regarding `CC1CCCCN(CC#Cc2cc(N3C4CCC3CN(c3cc(-c5ccccc5O)nnc3N)C4)ccn2)C1` (centres unmarked) [Compound 192, 2-[6-amino-5-[8-[2-[3-(3-methylazepan-1-yl)prop-1-ynyl]-4-pyridyl]-3,8-diazabicyclo[3.2.1]octan-3-yl]pyridazin-3-yl]phenol], on BRG1, the DC50 is under 10 nM and the Dmax fell in the range of 71 to 120%. On BRM, the DC50 was under 10 nM and the “BRM IF Degradation Sinf (%)” value was “F (F indicates −71%-−120%)”.
With `Nc1nnc(-c2ccccc2O)cc1N1CC2CCC(C1)N2c1ccnc(C#CCN2CCCC(F)CC2)c1` (centres unmarked) [Compound 193, 2-[6-amino-5-[8-[2-[3-(4-fluoroazepan-1-yl)prop-1-ynyl]-4-pyridyl]-3,8-diazabicyclo[3.2.1]octan-3-yl]pyridazin-3-yl]phenol], on BRG1, the DC50 is under 10 nM and the Dmax was in the range of 71 to 120%. Besides, at BRM, the DC50 was under 10 nM and the “BRM IF Degradation Sinf (%)” value was “F (F indicates −71%-−120%)”.
Consider `Nc1nnc(-c2ccccc2O)cc1N1CC2CCC(C1)N2c1ccnc(C#CCN2CCCCC(F)C2)c1` (centres unmarked) [Compound 194, 2-[6-amino-5-[8-[2-[3-(3-fluoroazepan-1-yl)prop-1-ynyl]-4-pyridyl]-3,8-diazabicyclo[3.2.1]octan-3-yl]pyridazin-3-yl]phenol], for which, at BRG1, the DC50 is under 10 nM and the Dmax lay in the range of 30 to 70%. Further, at BRM, the DC50 was under 10 nM and the “BRM IF Degradation Sinf (%)” value is given as “F (F indicates −71%-−120%)”.
Turning to `CC1CCCN(CC#Cc2cc(N3C4CCC3CN(c3cc(-c5ccccc5O)nnc3N)C4)ccn2)CC1C` (centres unmarked) [Compound 195, 2-[6-amino-5-[8-[2-[3-(3,4-dimethylazepan-1-yl)prop-1-ynyl]-4-pyridyl]-3,8-diazabicyclo[3.2.1]octan-3-yl]pyridazin-3-yl]phenol], at BRG1, the DC50 is under 10 nM and the Dmax lay within 30 to 70%. At BRM, the DC50 is under 10 nM and the “BRM IF Degradation Sinf (%)” value is “F (F indicates −71%-−120%)”.
As to `CC1CN(CC#Cc2cc(N3C4CCC3CN(c3cc(-c5ccccc5O)nnc3N)C4)ccn2)CCCC1O` (centres unmarked) [Compound 196, 1-[3-[4-[3-[3-amino-6-(2-hydroxyphenyl)pyridazin-4-yl]-3,8-diazabicyclo[3.2.1]octan-8-yl]-2-pyridyl]prop-2-ynyl]-3-methyl-azepan-4-ol], on BRG1, the DC50 is under 10 nM and the Dmax lay within 71 to 120%. For the same compound, on BRM, the DC50 is under 10 nM and the “BRM IF Degradation Sinf (%)” value is given as “F (F indicates −71%-−120%)”.
With `CC1(CO)CCCN(CC#Cc2cc(N3C4CCC3CN(c3cc(-c5ccccc5O)nnc3N)C4)ccn2)CC1` (centres unmarked) [Compound 197, 2-[6-amino-5-[8-[2-[3-[4-(hydroxymethyl)-4-methyl-azepan-1-yl]prop-1-ynyl]-4-pyridyl]-3,8-diazabicyclo[3.2.1]octan-3-yl]pyridazin-3-yl]phenol], at BRG1, the DC50 was under 10 nM and the Dmax is 30 to 70%. At BRM, the DC50 is under 10 nM and the “BRM IF Degradation Sinf (%)” value is on record as “F (F indicates −71%-−120%)”.
Turning to `Nc1nnc(-c2ccccc2O)cc1N1CC2CCC(C1)N2c1ccnc(C#CCN2CCCC(F)(F)C(F)C2)c1` (centres unmarked) [Compound 199, 2-[6-amino-5-[8-[2-[3-(3,4,4-trifluoroazepan-1-yl)prop-1-ynyl]-4-pyridyl]-3,8-diazabicyclo[3.2.1]octan-3-yl]pyridazin-3-yl]phenol], on BRG1, the DC50 was in the range of 10 to 100 nM and the Dmax fell in the range of 30 to 70%. Further, at BRM, the DC50 was under 10 nM and the “BRM IF Degradation Sinf (%)” value was “F (F indicates −71%-−120%)”.
Take `CC1CCCN(CC#Cc2cc(N3C4CCC3CN(c3cc(-c5ccccc5O)nnc3N)C4)ccn2)CC1` (centres unmarked) [Compound 200, 2-[6-amino-5-[8-[2-[3-(4-methylazepan-1-yl)prop-1-ynyl]-4-pyridyl]-3,8-diazabicyclo[3.2.1]octan-3-yl]pyridazin-3-yl]phenol]: on BRG1, the DC50 was under 10 nM and the Dmax was in the range of 71 to 120%. In addition, at BRM, the DC50 is under 10 nM and the “BRM IF Degradation Sinf (%)” value is on record as “F (F indicates −71%-−120%)”.
In the case of `CC1CCCCCN1CC#Cc1cc(N2C3CCC2CN(c2cc(-c4ccccc4O)nnc2N)C3)ccn1` (centres unmarked) [Compound 201, 2-[6-amino-5-[8-[2-[3-(2-methylazepan-1-yl)prop-1-ynyl]-4-pyridyl]-3,8-diazabicyclo[3.2.1]octan-3-yl]pyridazin-3-yl]phenol], on BRG1, the DC50 is under 10 nM and the Dmax was in the range of 30 to 70%. Besides, on BRM, the DC50 was under 10 nM and the “BRM IF Degradation Sinf (%)” value is reported as “F (F indicates −71%-−120%)”.
Turning to `Nc1nnc(-c2ccccc2O)cc1N1CC2CCC(C1)N2c1ccnc(C#CCN2CCc3ccccc3CC2)c1` [Compound 202, 2-[6-amino-5-[8-[2-[3-(1,2,4,5-tetrahydro-3-benzazepin-3-yl)prop-1-ynyl]-4-pyridyl]-3,8-diazabicyclo[3.2.1]octan-3-yl]pyridazin-3-yl]phenol], at BRG1, the DC50 was in the range of 10 to 100 nM and the Dmax lay within 30 to 70%. Besides, on BRM, the DC50 was 10 to 100 nM and the “BRM IF Degradation Sinf (%)” value is on record as “E (E indicates −30%-−70%)”.
